Columns and labels:
Assay type in all cases: in vivo
rice (Oryza saliva) = test: Test B flooded paddy test; settings: Rate 1000 g/ha, scale of 0 to 100 where 0 is no effect and 100 is complete control, visually evaluated after 13 to 15 days
Method in brief: (§1)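 Greenhouse-held for 13 to 15 days after treatment at the 2-leaf stage, paddy-grown plants were scored visually against controls on a 0-to-100 control scale; a dash marks no test result.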

[1] = system: smallflower flatsedge (Cyperus difformis); test: Test B flooded paddy test; settings: Rate 1000 g/ha, scale of 0 to 100 where 0 is no effect and 100 is complete control, visually evaluated after 13 to 15 days
Method in brief: as §1

[2] = system: duck salad (Heteranthera limosa); test: Test B flooded paddy test; settings: Rate 1000 g/ha, scale of 0 to 100 where 0 is no effect and 100 is complete control, visually evaluated after 13 to 15 days
Method in brief: as §1

[3] = system: barnyardgrass (Echinochloa crus-galli); test: Test B flooded paddy test; settings: Rate 1000 g/ha, scale of 0 to 100 where 0 is no effect and 100 is complete control, visually evaluated after 13 to 15 days
Method in brief: as §1

[4] = system: giant foxtail (Setaria viridis); test: Test A postemergence, sprayed to runoff; settings: approx. eleven days
Method: (§2) Seeds of barnyardgrass (Echinochloa crus-galli), crabgrass (Digitaria spp.), giant foxtail (Setaria viridis), morning glory (Ipomoea spp.), redroot pigweed (Amaranthus retroflexus) and velvetleaf (Abutilon theophrasti) were planted into a sandy loam soil and treated preemergence by soil drench with test chemicals formulated in a non-phytotoxic solvent mixture which included a surfactant. At the same time, these crop and weed species were also treated postemergence sprayed to runoff with test chemicals formulated in the same manner. Plants ranged in height from two to eighteen cm and were in the one- to two-leaf stage for the postemergence treatment. Treated plants and untreated controls were maintained in a greenhouse for approximately eleven days, after which time all treated plants were compared to untreated controls and visually evaluated for injury. Plant response ratings, summarized in Table A, are based on a 0 to 10 scale where 0 is no effect and 10 is complete control. A dash (-) response means no test results.

[5] = system: barnyardgrass (Echinochloa crus-galli); test: Test A postemergence, sprayed to runoff; settings: approx. eleven days
Method: as §2

[6] = system: redroot pigweed (Amaranthus retroflexus); test: Test A postemergence, sprayed to runoff; settings: approx. eleven days
Method: as §2

[7] = system: crabgrass (Digitaria spp.); test: Test A postemergence, sprayed to runoff; settings: approx. eleven days
Method: as §2

[8] = system: lambsquarters (Chenopodium album); test: Test B postemergence; settings: 13 to 15 days
Method in brief: (§3)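 Post-treatment, species sat 13–15 days under greenhouse conditions before visual scoring against controls, 0 (no effect) through 100 (complete control). Application preemergence to sown seeds or postemergence at 1- to 4-leaf stage, using a non-phytotoxic solvent/surfactant formulation.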

[9] = system: Surinam grass (Brachiaria decumbens); test: Test B postemergence; settings: 13 to 15 days
Method in brief: as §3

[10] = system: crabgrass (Digitaria sanguinalis); test: Test B postemergence; settings: 13 to 15 days
Method in brief: as §3

[11] = system: velvetleaf (Abutilon theophrasti); test: Test B postemergence; settings: 13 to 15 days
Method in brief: as §3

[12] = system: cocklebur (Xanthium strumarium); test: Test B postemergence; settings: 13 to 15 days
Method in brief: as §3

[13] = system: blackgrass (Alopecurus myosuroides); test: Test B postemergence; settings: 13 to 15 days
Method in brief: as §3

[14] = system: giant foxtail (Setaria faberii); test: Test B postemergence; settings: 13 to 15 days
Method in brief: as §3

[15] = system: morning glory (Ipomoea hederacea); test: Test B postemergence; settings: 13 to 15 days
Method in brief: as §3

[16] = Rate 125 g/ha, scale 0 (no effect) to 100 (complete control)
[17] = Rate 500 g/ha, scale 0 to 100, 0 is no effect, 100 is complete control

Row | SMILES | Plant response rating, Rice (rice (Oryza saliva)) | Plant response rating, Flatsedge [1] | Plant response rating, Ducksalad [2] | Plant response rating, Barnyardgrass [3] | Plant response rating (visual injury vs untreated controls) ([4]; Rate 500 g/ha) | Plant response rating (visual injury vs untreated controls) ([4]; Rate 2000 g/ha) | Plant response rating (visual injury vs untreated controls) ([5]; Rate 500 g/ha) | Plant response rating (visual injury vs untreated controls) ([5]; Rate 2000 g/ha) | Plant response rating (visual injury vs untreated controls) ([6]; Rate 500 g/ha) | Plant response rating (visual injury vs untreated controls) ([6]; Rate 2000 g/ha) | Plant response rating (visual injury vs untreated controls) ([7]; Rate 500 g/ha) | Plant response rating (visual injury vs untreated controls) ([7]; Rate 2000 g/ha) | Plant response rating, Lambsquarters [8, 16] | Plant response rating, Lambsquarters [8, 17] | Plant response rating, Surinam grass [9, 16] | Plant response rating, Surinam grass [9, 17] | Plant response rating, Crabgrass [10, 16] | Plant response rating, Crabgrass [10, 17] | Plant response rating, Velvetleaf [11, 16] | Plant response rating, Velvetleaf [11, 17] | other results
1 | O=C1C(n2cccn2)CCN1c1cccc(C(F)(F)F)c1 (stereo not drawn) [Compound 15] | 0 | 0 | 0 | 0 | 10 | 10 | 10 | 10 | 0 | 0 | 10 | 10 | 0 | 0 | 0 | 0 | 20 | 50 | 0 | 0 | Plant response rating, Cocklebur [12, 16]: 0; Plant response rating, Cocklebur [12, 17]: 0; Plant response rating, Blackgrass [13, 16]: 0; Plant response rating, Blackgrass [13, 17]: 30; Plant response rating, Foxtail, Giant [14, 16]: 0; Plant response rating, Foxtail, Giant [14, 17]: 30; Plant response rating, Morningglory [15, 16]: 0; Plant response rating, Morningglory [15, 17]: 0
2 | Cc1ccn(C2CCN(c3cccc(C(F)(F)F)c3)C2=O)n1 (stereo not drawn) [Compound 16] | 0 | 0 | 0 | 0 | 0 | 30 | 0 | 10 | 0 | 0 | 10 | 20 | 0 | 0 | 0 | 0 | 0 | 60 | 0 | 0 | Plant response rating, Cocklebur [12, 16]: 0; Plant response rating, Cocklebur [12, 17]: 0; Plant response rating, Blackgrass [13, 16]: 0; Plant response rating, Blackgrass [13, 17]: 0; Plant response rating, Foxtail, Giant [14, 16]: 0; Plant response rating, Foxtail, Giant [14, 17]: 30; Plant response rating, Morningglory [15, 16]: 0; Plant response rating, Morningglory [15, 17]: 0
3 | CC(C)(C)c1nn(C2CCN(c3cccc(C(F)(F)F)c3)C2=O)cc1Cl (stereo not drawn) [Compound 14] | 0 | 0 | 0 | 0 | 0 | 0 | 0 | 0 | 0 | 20 | 0 | 0 | 0 | 0 | 0 | 0 | 50 | 70 | 0 | 0 | Plant response rating, Cocklebur [12, 16]: 0; Plant response rating, Cocklebur [12, 17]: 0; Plant response rating, Blackgrass [13, 16]: 0; Plant response rating, Blackgrass [13, 17]: 0; Plant response rating, Foxtail, Giant [14, 16]: 20; Plant response rating, Foxtail, Giant [14, 17]: 30; Plant response rating, Morningglory [15, 16]: 30; Plant response rating, Morningglory [15, 17]: 80

From patent publication US7138361B2, “Herbicidal heterocycles” (E. I. du Pont de Nemours and Company, priority 2000, dated 2006)
